Measured values from ChEMBL document CHEMBL3217462, “FP Tethering: a screening technique to rapidly identify compounds that disrupt protein-protein interactions” (Medchemcomm, 2014).

How the values were obtained:
Homo sapiens [1] = species: Homo sapiens; experiment: Binding affinity to CBP KIX domain H602C mutant (unknown origin) assessed as increase in binding affinity constant for c-Myb by fluorescence polarization tethering assay
Homo sapiens [2] = species: Homo sapiens; experiment: Binding affinity to CBP KIX domain H602C mutant (unknown origin) assessed as increase in binding affinity constant for phosphorylated KID by fluorescence polarization tethering assay
Homo sapiens [3] = species: Homo sapiens; experiment: Binding affinity to CBP KIX domain H602C mutant (unknown origin) after 1 hr by Fluorescent polarization assay
Homo sapiens [4] = species: Homo sapiens; experiment: Displacement of fluorescent-labelled pKID from CBP KIX domain H602C mutant (unknown origin) after 1 hr by Fluorescent polarization assay; conditions: concentration not given here
Homo sapiens [5] = species: Homo sapiens; experiment: Binding affinity to CBP KIX domain H602C mutant (unknown origin) assessed as increase in binding affinity constant for MLL by fluorescence polarization tethering assay
Homo sapiens [6] = species: Homo sapiens; experiment: Binding affinity to CBP KIX domain N627C mutant (unknown origin) after 1 hr by Fluorescent polarization assay
Homo sapiens [7] = species: Homo sapiens; experiment: Displacement of fluorescent-labelled MLL from CBP KIX domain N627C mutant (unknown origin) at 250 uM after 1 hr by Fluorescent polarization assay
[8] = (§1) Displacement of fluorescent-labelled MLL from CBP KIX domain N627C mutant (unknown origin) after 1 hr by Fluorescent polarization assay; design: species or system Homo sapiens
Homo sapiens [9] = species: Homo sapiens; experiment: as §1

Compound | fold change (FC) (Homo sapiens [1]) | fold change (FC) (Homo sapiens [2]) | Activity (Homo sapiens [3]) [%] | inhibition (Homo sapiens [4]) [%] | fold change (FC) (Homo sapiens [5]) | Activity (Homo sapiens [6]) [%] | inhibition (Homo sapiens [7]) [%] | IC50 [8] [µM] | inhibition (Homo sapiens [9])
CC(=O)Nc1ccc(Cl)c(NC(=O)NCCSSCCN(C)C)c1 | 9 | 6.5 | 71 | 24 | 9 |  |  |  | 
COc1ccc2cc([C@H](C)C(=O)NCCSSCCN)ccc2c1 |  |  |  |  |  | 36 | 32 |  | 
CN(C)CCSSCCNC(=O)C1CCN(C(=O)c2ccccc2Nc2ccccc2)CC1 |  |  | 15 | 22 |  |  |  |  | 
CN(C)CCSSCCC(=O)N1CCC(O)(c2ccc(Cl)c(C(F)(F)F)c2)CC1 |  |  |  |  |  | 67 | 44 | 68 | Dose-dependent effect
